Laboratory results taken from ChEMBL document CHEMBL4477224, “Antidiabetic effect, antioxidant activity, and toxicity of 3',4'-Di-O-acetyl-cis-khellactone in Streptozotocin-induced diabetic rats” (Bioorg Med Chem Lett, 2016).
Calls of active or inactive are those of the source. The rule behind the calls is not given here.

Experiments:
[1] = Mutagenicity in Salmonella typhimurium TA98 assessed as mutagenic index at 0.005 uM/plate after 48 hrs in presence of S9 fraction by Ames test relative to control; format: toxicity, subcellular; conditions: salmonella enterica subsp. enterica serovar typhimurium, s9, 48 h
[2] = Mutagenicity in Salmonella typhimurium TA100 assessed as mutagenic index at 0.005 uM/plate after 48 hrs in presence of S9 fraction by Ames test relative to control; format: toxicity, subcellular; conditions: salmonella enterica subsp. enterica serovar typhimurium, s9, 48 h
[3] = Mutagenicity in Salmonella typhimurium TA102 assessed as mutagenic index at 0.005 uM/plate after 48 hrs in presence of S9 fraction by Ames test relative to control; format: toxicity, subcellular; conditions: salmonella enterica subsp. enterica serovar typhimurium, s9, 48 h
[4] = Mutagenicity in Salmonella typhimurium TA98 assessed as mutagenic index at 0.19 uM/plate after 48 hrs in absence of S9 fraction by Ames test relative to control; format: toxicity; conditions: salmonella enterica subsp. enterica serovar typhimurium, s9, 48 h
Rattus norvegicus [5] = assay: Antidiabetic activity in STZ-induced diabetic albino Wistar rat assessed as increase in body weight at 100 mg/kg, po administered for 45 days relative to control; format: functional
Rattus norvegicus [6] = assay: Antidiabetic activity in STZ-induced diabetic Wistar rat blood assessed as cholesterol level at 2.5 mg/kg, po administered for 15 days (reference value: 80.09 +/- 9.35 mg/dl); format: functional
Rattus norvegicus [7] = assay: Antioxidant activity in STZ-induced diabetic Wistar rat liver assessed as glutathione peroxidase level measured as NADPH consumption per mg of protein at 2.5 mg/kg, po administered for 15 days (reference value: 10 +/- 0.6 microM/min); format: functional
Rattus norvegicus [8] = assay: Antidiabetic activity in STZ-induced diabetic Wistar rat blood assessed as creatinine level at 2.5 mg/kg, po administered for 15 days (reference value: 0.56 +/- 0.03 mg/dl); format: functional
Rattus norvegicus [9] = assay: Antidiabetic activity in STZ-induced diabetic Wistar rat assessed as change in fasting blood glucose level at 2.5 mg/kg, po administered for 7 days post STZ challenge measured on day 14 by glucometry (reference value: 63.75 +/- 7.3 mg/dl); format: functional
Rattus norvegicus [10] = assay: Antidiabetic activity in STZ-induced diabetic Wistar rat blood assessed as urea level at 2.5 mg/kg, po administered for 15 days (reference value: 62.98 +/- 6.21 mg/dl); format: functional
Rattus norvegicus [11] = assay: Antidiabetic activity in STZ-induced diabetic Wistar rat assessed as change in fasting blood glucose level at 2.5 mg/kg, po administered on day 7 post STZ challenge measured immediately post dosage by glucometry (reference value: 63.75 +/- 7.3 mg/dl); format: functional
Rattus norvegicus [12] = assay: Antidiabetic activity in STZ-induced diabetic Wistar rat assessed as body weight at 2.5 mg/kg, po administered on day 7 post STZ challenge measured immediately post dosage (reference value: 330.7 +/- 9.2 g); format: functional
Rattus norvegicus [13] = assay: Antidiabetic activity in STZ-induced diabetic Wistar rat assessed as increase in fasting blood glucose level at 2.5 mg/kg, po administered for 15 days post STZ challenge measured on day 21 by glucometry; format: functional
Rattus norvegicus [14] = assay: Antidiabetic activity in STZ-induced diabetic Wistar rat assessed as decrease in blood glucose level at 2.5 mg/kg, po administered for 15 days post STZ challenge measured on day 21 by glucometry relative to control; format: functional; parameters: scale not given: the % may be the effect or the level left
Rattus norvegicus [15] = assay: Antidiabetic activity in STZ-induced diabetic Wistar rat assessed as change in fasting blood glucose level at 2.5 mg/kg, po administered for 15 days post STZ challenge measured on day 21 by glucometry (reference value: 63.75 +/- 7.3 mg/dl); format: functional
Rattus norvegicus [16] = assay: Antioxidant activity in STZ-induced diabetic Wistar rat liver assessed as SOD level measured per mg of protein at 2.5 mg/kg, po administered for 15 days by NBT reduction test (reference value: 0.22 +/- 0.06 microM/min); format: functional
Rattus norvegicus [17] = assay: Antidiabetic activity in STZ-induced diabetic Wistar rat assessed as increase in body weight at 2.5 mg/kg, po administered for 15 days post STZ challenge measured on day 21; format: functional
Rattus norvegicus [18] = assay: Antioxidant activity in STZ-induced diabetic Wistar rat liver assessed as catalase level measured as H2O2 consumption per mg of protein at 2.5 mg/kg, po administered for 15 days (reference value: 68.9 +/- 11.1 microM/min); format: functional
Rattus norvegicus [19] = assay: Antidiabetic activity in STZ-induced diabetic Wistar rat assessed as effect on hepatocytes surrounding central vein architecture at 2.5 mg/kg, po administered for 15 days by hematoxylin/eosin staining based microscopy; format: functional, organism-based
Rattus norvegicus [20] = assay: Antidiabetic activity in STZ-induced diabetic Wistar rat blood assessed as LDL level at 2.5 mg/kg, po administered for 15 days (reference value: 23.11 +/- 9.82 mg/dl); format: functional
Rattus norvegicus [21] = assay: Antidiabetic activity in STZ-induced diabetic Wistar rat assessed as body weight at 2.5 mg/kg, po administered for 15 days post STZ challenge measured on day 21 (reference value: 330.7 +/- 9.2 g); format: functional
Rattus norvegicus [22] = assay: Antidiabetic activity in STZ-induced diabetic Wistar rat blood assessed as HDL level at 2.5 mg/kg, po administered for 15 days (reference value: 36.31 +/- 0.51 mg/dl); format: functional
Rattus norvegicus [23] = assay: Antidiabetic activity in STZ-induced diabetic Wistar rat liver assessed as effect on central vein architecture at 2.5 mg/kg, po administered for 15 days by hematoxylin/eosin staining based microscopy; format: functional, organism-based
[24] = Toxicity in DBA/2J mouse assessed as mortality; conditions: in vivo

**Q.** For Nc1ccc2cc3ccccc3cc2c1 [2-AMINOANTHRACENE], which Ratio [1] is on record?
**A.** 54.1

**Q.** And the Ratio [2]?
**A.** 19.1

**Q.** And the Ratio [3]?
**A.** 3.5

**Q.** For CC1=NN(c2ccc([N+](=O)[O-])cc2)C(=O)C1[N+](=O)[O-] (centres undefined), which Ratio [4] is on record?
**A.** 27.3

**Q.** With C[C@@H]1O[C@@H](OC[C@H]2O[C@@H](Oc3c(-c4ccc(O)c(O)c4)oc4cc(O)cc(O)c4c3=O)[C@H](O)[C@@H](O)[C@@H]2O)[C@H](O)[C@H](O)[C@H]1O [RUTIN] as the compound, how does the Activity (Rattus norvegicus [5]) read?
**A.** 12.1%

**Q.** For COc1ccc(Cl)cc1C(=O)NCCc1ccc(S(=O)(=O)NC(=O)NC2CCCCC2)cc1 [GLYBURIDE], which Activity (Rattus norvegicus [6]) is on record?
**A.** 70.64 mg/dL

**Q.** What about the Activity (Rattus norvegicus [7]) of the same compound?
**A.** 48.75 µM/min

**Q.** What about the Activity (Rattus norvegicus [8]) of the same compound?
**A.** 0.62 mg/dL

**Q.** What about the Activity (Rattus norvegicus [9]) of the same compound?
**A.** 282.8 mg/dL

**Q.** And the Activity (Rattus norvegicus [10])?
**A.** 58.43 mg/dL

**Q.** What about the Activity (Rattus norvegicus [11]) of the same compound?
**A.** 211.7 mg/dL

**Q.** And the Activity (Rattus norvegicus [12])?
**A.** 341.4 g

**Q.** And the Activity (Rattus norvegicus [13])?
**A.** 78.25 mg/dL

**Q.** What about the Activity (Rattus norvegicus [14]) of the same compound?
**A.** 56.6%

**Q.** What about the Activity (Rattus norvegicus [15]) of the same compound?
**A.** 142 mg/dL

**Q.** What about the Activity (Rattus norvegicus [16]) of the same compound?
**A.** 0.55 U/min

**Q.** What about the Activity (Rattus norvegicus [17]) of the same compound?
**A.** 54.8 g

**Q.** What about the Activity (Rattus norvegicus [18]) of the same compound?
**A.** 93.2 µM/min

**Q.** And the Activity (Rattus norvegicus [19])?
**A.** Active

**Q.** And the Activity (Rattus norvegicus [20])?
**A.** 21.71 mg/dL

**Q.** What about the Activity (Rattus norvegicus [21]) of the same compound?
**A.** 385.5 g

**Q.** And the Activity (Rattus norvegicus [22])?
**A.** 26.6 mg/dL

**Q.** And the Activity (Rattus norvegicus [23])?
**A.** Active

**Q.** With O=c1ccc2ccccc2o1 [COUMARIN] as the compound, how does the LD50 [24] read?
**A.** > 700 mg/kg
